Data set [1] can be described thus: Microsomal liver stability assay, mouse. Particulars: pH 7.4. The format is in vitro ADME.
Data set [2] can be described thus: Microsomal liver stability assay, rat. The format is in vitro ADME. Particulars: both, pH 7.4.
Data set [3] has as its target T1, rat sEH (Rattus norvegicus, UniProt P80299).
T1 sequence (P80299 1-554): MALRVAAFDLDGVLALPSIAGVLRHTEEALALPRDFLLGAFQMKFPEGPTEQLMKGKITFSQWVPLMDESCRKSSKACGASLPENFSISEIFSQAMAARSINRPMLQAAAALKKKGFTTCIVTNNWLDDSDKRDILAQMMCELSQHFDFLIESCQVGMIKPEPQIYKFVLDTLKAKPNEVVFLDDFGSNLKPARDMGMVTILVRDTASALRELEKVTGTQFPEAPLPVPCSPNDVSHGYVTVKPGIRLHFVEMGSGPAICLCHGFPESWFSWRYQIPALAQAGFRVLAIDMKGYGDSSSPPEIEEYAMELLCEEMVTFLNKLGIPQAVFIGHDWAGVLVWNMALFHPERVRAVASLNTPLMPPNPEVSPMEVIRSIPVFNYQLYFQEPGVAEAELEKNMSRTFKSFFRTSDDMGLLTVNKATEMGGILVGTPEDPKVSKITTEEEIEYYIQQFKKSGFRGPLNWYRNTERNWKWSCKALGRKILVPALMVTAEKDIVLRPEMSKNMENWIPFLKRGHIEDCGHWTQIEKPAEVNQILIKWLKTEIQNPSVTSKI
Description: sEH inhibition assay. The class given is biochemical.

Data set [4] concerns the target T2, human sEH (Homo sapiens, UniProt P34913).
T2 sequence (P34913 1-555): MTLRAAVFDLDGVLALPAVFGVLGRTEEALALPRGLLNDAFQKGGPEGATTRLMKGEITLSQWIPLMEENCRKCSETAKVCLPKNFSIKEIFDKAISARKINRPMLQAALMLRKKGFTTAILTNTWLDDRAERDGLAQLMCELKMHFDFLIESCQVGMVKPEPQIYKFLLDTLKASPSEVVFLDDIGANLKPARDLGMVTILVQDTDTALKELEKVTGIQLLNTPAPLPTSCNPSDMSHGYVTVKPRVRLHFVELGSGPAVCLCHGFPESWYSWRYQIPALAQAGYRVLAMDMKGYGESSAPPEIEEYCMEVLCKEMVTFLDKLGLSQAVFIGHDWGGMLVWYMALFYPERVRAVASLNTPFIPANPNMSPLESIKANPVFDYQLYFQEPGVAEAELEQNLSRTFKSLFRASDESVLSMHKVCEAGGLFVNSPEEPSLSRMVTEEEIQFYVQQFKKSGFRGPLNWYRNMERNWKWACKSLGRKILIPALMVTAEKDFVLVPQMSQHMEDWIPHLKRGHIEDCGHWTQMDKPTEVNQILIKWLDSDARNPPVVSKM
The data set can be described thus: sEH inhibition assay. The class given is biochemical. Particulars: CMNPC 5 μM, pH 7.4, 30 °C.

Data set [5] addresses T3, human FAAH (Homo sapiens, UniProt O00519).
T3 sequence (O00519 1-579): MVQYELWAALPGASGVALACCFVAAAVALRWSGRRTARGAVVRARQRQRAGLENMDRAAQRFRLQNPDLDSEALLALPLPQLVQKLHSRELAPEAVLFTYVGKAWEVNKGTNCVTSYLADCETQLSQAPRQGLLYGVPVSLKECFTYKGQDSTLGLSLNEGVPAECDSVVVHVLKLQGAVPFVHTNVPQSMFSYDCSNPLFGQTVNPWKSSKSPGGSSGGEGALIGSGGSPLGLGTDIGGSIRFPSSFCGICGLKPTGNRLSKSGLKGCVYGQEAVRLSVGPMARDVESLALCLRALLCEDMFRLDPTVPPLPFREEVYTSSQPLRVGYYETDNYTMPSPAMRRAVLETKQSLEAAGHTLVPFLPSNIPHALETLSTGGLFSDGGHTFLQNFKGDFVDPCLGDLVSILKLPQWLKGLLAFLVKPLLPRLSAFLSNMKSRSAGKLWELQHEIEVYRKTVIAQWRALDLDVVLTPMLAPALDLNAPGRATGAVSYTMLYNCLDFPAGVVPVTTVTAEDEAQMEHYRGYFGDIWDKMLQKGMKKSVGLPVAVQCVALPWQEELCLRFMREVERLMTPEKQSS
The data set can be described thus: FAAH inhibition assay. The class given is biochemical. To be noted: OMP 50 μM, pH 8, 37 °C.

Data set [6] has as its target T4, mouse sEH (Mus musculus, UniProt P34914).
T4 sequence (P34914 1-554): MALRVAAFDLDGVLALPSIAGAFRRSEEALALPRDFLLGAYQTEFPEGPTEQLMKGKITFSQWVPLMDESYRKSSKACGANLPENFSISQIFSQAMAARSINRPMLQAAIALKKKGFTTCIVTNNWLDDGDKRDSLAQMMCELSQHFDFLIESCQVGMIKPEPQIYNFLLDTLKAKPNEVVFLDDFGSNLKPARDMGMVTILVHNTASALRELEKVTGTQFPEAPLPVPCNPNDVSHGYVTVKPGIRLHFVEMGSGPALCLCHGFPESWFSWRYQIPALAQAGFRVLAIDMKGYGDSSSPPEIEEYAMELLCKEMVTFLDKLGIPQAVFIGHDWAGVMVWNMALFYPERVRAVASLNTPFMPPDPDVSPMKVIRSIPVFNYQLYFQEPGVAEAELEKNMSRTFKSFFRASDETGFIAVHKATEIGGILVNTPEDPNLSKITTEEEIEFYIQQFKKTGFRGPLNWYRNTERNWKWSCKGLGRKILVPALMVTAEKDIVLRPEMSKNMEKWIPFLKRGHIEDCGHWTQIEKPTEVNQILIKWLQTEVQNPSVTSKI
The data set can be described thus: sEH inhibition assay. The format is biochemical.

Data set [7] in a line: Microsomal liver stability assay, human. The format is in vitro ADME. To be noted: pH 7.4.
Where [8] appears, read: Human sEH IC50, human recombinant sEH.
Where [9] appears, read: Human FAAH IC50, human recombinant FAAH.
Where [10] appears, read: read-out: Rat sEH IC50, rat sEH, CMNPC 5 μM, pH 7.4, 30 °C.

Read-outs that look alike come from different tables or passages of the source.

What is called half-life is how long it takes for the measured level to halve. The low end stands for rapid decline, the high end for slow decline. As usually defined, the microsomal CLint is a measure of how fast metabolising enzymes remove a compound, apart from limits set by blood flow. The term IC50 denotes the concentration at which inhibition is half-maximal. Consider `O=C(Nc1ccc(-c2nc3ccccc3s2)cc1)C1CCN(S(=O)(=O)c2ccccc2C(F)(F)F)CC1` [Compound 7a, N-(4-(benzo[d]thiazol-2-yl)phenyl)-1-((2-(trifluoromethyl)phenyl)sulfonyl)piperidine-4-carboxamide], for which the half-life at 1 μM in data set [1] (mouse liver microsomes) is 15.8 min; in data set [2] (rat liver microsomes) it was 14.7 min; in data set [7] (human liver microsomes), 24 min. For the same compound, the microsomal CLint at 1 μM in data set [1] (mouse liver microsomes) worked out at 87 µL/min/mg; in data set [2] (rat liver microsomes), 94 µL/min/mg; in data set [7] (human liver microsomes), 57 µL/min/mg. Further, the IC50 in data set [3] came out at 5.7 nM; in data set [4] (setting [8]), 3.1 nM; in data set [5] (setting [9]) it was 0.0097 µM; in data set [6] it was 7210 nM.
On to `N#Cc1ccccc1S(=O)(=O)N1CCC(C(=O)Nc2ccc(-c3nc4ccccc4s3)cc2)CC1` [Compound 7b, N-(4-(benzo[d]thiazol-2-yl)phenyl)-1-((2-cyanophenyl)sulfonyl)piperidine-4-carboxamide], for which the IC50 is 185 nM in data set [3], 19.5 nM in data set [4] (setting [8]), 0.287 µM in data set [5] (setting [9]) and 578 nM in data set [6].
`O=C(Nc1ccc(-c2nc3ccccc3s2)cc1)C1CCN(S(=O)(=O)c2cccc(C(F)(F)F)c2)CC1` [Compound 7c, N-(4-(benzo[d]thiazol-2-yl)phenyl)-1-((3-(trifluoromethyl)phenyl)sulfonyl)piperidine-4-carboxamide]: the IC50 in data set [3] worked out at 124 nM; in data set [4] (setting [8]) it was 89.3 nM; in data set [5] (setting [9]), 0.0223 µM; in data set [6], 4310 nM.
Taken in the same sequence, the figures for `O=C(Nc1ccc(-c2nc3ccccc3s2)cc1)C1CCN(S(=O)(=O)c2ccc(C(F)(F)F)cc2)CC1` [Compound 7d, N-(4-(benzo[d]thiazol-2-yl)phenyl)-1-((4-(trifluoromethyl)phenyl)sulfonyl)piperidine-4-carboxamide] were 28.9 nM, 51.5 nM, 0.0481 µM and 9180 nM.
As to `O=C(Nc1ccc(-c2nc3ccccc3s2)cc1)C1CCN(S(=O)(=O)c2ccc([N+](=O)[O-])cc2)CC1` [Compound 7e, N-(4-(benzo[d]thiazol-2-yl)phenyl)-1-((4-nitrophenyl)sulfonyl)piperidine-4-carboxamide], the values for the IC50 in data set [3] and in data set [6] were 4480 nM and more than 10000 nM, respectively.
In the case of `O=C(Nc1ccc(-c2nc3ccccc3s2)cc1)C1CCN(S(=O)(=O)c2ccc(F)cc2Cl)CC1` [Compound 7f, N-(4-(benzo[d]thiazol-2-yl)phenyl)-1-((2-chloro-4-fluorophenyl)sulfonyl)piperidine-4-carboxamide], the IC50 came out at 116 nM in data set [3], 16.9 nM in data set [4] (setting [8]), 0.0191 µM in data set [5] (setting [9]) and 267 nM in data set [6].
For the compound `O=C(Nc1ccc(-c2nc3ccccc3s2)cc1)C1CCN(S(=O)(=O)c2ccc(C(F)(F)F)cc2Cl)CC1` [Compound 7g, N-(4-(benzo[d]thiazol-2-yl)phenyl)-1-((2-chloro-4-(trifluoromethyl)phenyl)sulfonyl) piperidine-4-carboxamide], the IC50 in data set [3] (setting [10]) amounted to 859 nM; in data set [4] (read-out: Human sEH IC50, human recombinant sEH) it was 432 nM; in data set [5] (read-out: Human FAAH IC50, human recombinant FAAH) it was 0.0266 µM; in data set [6] (read-out: Mouse sEH IC50, mouse sEH, CMNPC 5 μM, pH 7.4, 30 °C), 9060 nM.
In the case of `O=C(Nc1ccc(-c2nc3ccccc3s2)cc1)C1CCN(S(=O)(=O)c2ccc(F)cc2Br)CC1` [Compound 7h, N-(4-(benzo[d]thiazol-2-yl)phenyl)-1-((2-bromo-4-fluorophenyl)sulfonyl)piperidine-4-carboxamide], the IC50 in data set [3] amounted to 11.8 nM; in data set [4] (setting [8]), 8.2 nM; in data set [5] (setting [9]), 0.0289 µM; in data set [6], 402 nM.
Regarding `O=C(Nc1ccc(-c2nc3ccccc3s2)cc1)C1CCN(S(=O)(=O)c2cc(C(F)(F)F)cc(C(F)(F)F)c2)CC1` [Compound 7j, N-(4-(benzo[d]thiazol-2-yl)phenyl)-1-((3,5-bis(trifluoromethyl)phenyl)sulfonyl)piperidine-4-carboxamide], the IC50 is 2910 nM in data set [3], 4840 nM in data set [4] (setting [8]), 0.0419 µM in data set [5] (setting [9]) and more than 10000 nM in data set [6].
Taken in the same sequence, the figures for `O=C(Nc1ccc(-c2nc3ccccc3s2)cc1)C1CCN(S(=O)(=O)c2c(Cl)cc(Br)cc2Cl)CC1` [Compound 7k, N-(4-(benzo[d]thiazol-2-yl)phenyl)-1-((4-bromo-2,6-dichlorophenyl)sulfonyl)piperidine-4-carboxamide] were 42.5 nM, 41 nM, 0.0897 µM and 1790 nM.
As for `C[C@]12CC[C@H]3[C@@H](CCC4=CC(=O)CC[C@@]43C)[C@@H]1CC[C@@H]2O` [Testosterone (control), testosterone, reference compound], the microsomal CLint at 1 μM in data set [1] (microsomes) is 280 µL/min/mg; in data set [2] (microsomes), 1250 µL/min/mg; in data set [7] (microsomes) it was 61 µL/min/mg. This compound displayed a half-life at 1 μM in data set [2] (microsomes) of 1.1 min.
For `O=C(Nc1ccc(OC(F)(F)F)cc1)NC1CCC(Oc2ccc(C(=O)O)cc2)CC1` (stereo not shown) [t-TUCB, reference compound], the IC50 in data set [3] (setting [10]) amounted to 9.3 nM.

The values above are taken from article PMC9879382 (Prostaglandins & other lipid mediators, 2022).
